Reference: ChEMBL document CHEMBL2177072, “Design and synthesis of β-site amyloid precursor protein cleaving enzyme (BACE1) inhibitors with in vivo brain reduction of β-amyloid peptides” (J Med Chem, 2012)
Active and inactive are the calls of the source. No cut-off for these calls is given here.

Columns and labels:
Beta-secretase 1 [1] = molecular target: T1, Beta-secretase 1 (Homo sapiens, UniProt P56817); format: cell-based, SH-SY5Y
Beta-secretase 1 [2] = molecular target: T1, Beta-secretase 1
Beta-secretase 2 = molecular target: T2, Beta-secretase 2 (Homo sapiens, UniProt Q9Y5Z0)
T2 sequence (Q9Y5Z0 whole entry): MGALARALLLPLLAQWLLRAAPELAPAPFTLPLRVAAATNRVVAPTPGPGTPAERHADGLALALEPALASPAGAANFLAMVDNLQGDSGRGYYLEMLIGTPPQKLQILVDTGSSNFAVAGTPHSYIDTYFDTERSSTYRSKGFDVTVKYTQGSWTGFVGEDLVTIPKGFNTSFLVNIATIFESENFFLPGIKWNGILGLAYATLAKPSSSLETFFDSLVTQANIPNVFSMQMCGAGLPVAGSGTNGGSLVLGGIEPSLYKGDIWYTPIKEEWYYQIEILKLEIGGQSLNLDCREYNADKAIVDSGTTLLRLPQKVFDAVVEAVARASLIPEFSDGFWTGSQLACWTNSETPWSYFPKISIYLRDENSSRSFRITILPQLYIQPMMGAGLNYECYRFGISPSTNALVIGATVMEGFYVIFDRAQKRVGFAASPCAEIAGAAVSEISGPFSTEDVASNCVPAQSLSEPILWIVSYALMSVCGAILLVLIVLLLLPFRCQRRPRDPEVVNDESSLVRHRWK

Beta-secretase 1 [3] = molecular target: Beta-secretase 1 (Mus musculus, UniProt P56818)
Description: Inhibition of BACE1-mediated amyloid beta 40 release in C57/BL6 mouse primary cortical neurons after overnight incubation by ELISA

in vitro [4] = details: human, Caco-2
Description: Apparent permeability from apical to basal side of human Caco2 cells at 10 uM after 60 mins by LC/MS analysis

physchem [5] = assay: physchem
in vitro [6] = details: rat, hepatocytes
physchem [7] = assay: physchem; remark: listed apart in the source
Description: Lipophilicity, log D of the compound by RP-HPLC analysis

[8] = molecular target: Voltage-gated inwardly rectifying potassium channel KCNH2 (Homo sapiens, UniProt Q12809)
Description: Inhibition of human ERG expressed in CHO cells by IonWorks assay

in vitro [9] = details: human, Caco-2; remark: listed apart in the source
Description: Efflux ratio of apparent permeability from basal to apical to apical to basal side of human Caco2 cells at 10 uM after 60 mins by LC/MS analysis

Brain [10] = assay: Free drug concentration in C57BL/6 mouse brain at 300 umol/kg, po at […]; format: ADME, organism-based; details: in vivo
Mus musculus [11] = assay: Antialzheimer activity in C57BL/6 mouse assessed as reduction in amyloid beta 40 level in brain at 300 umol/kg, po at […] by ELISA relative to control; format: functional; set-up: scale not given: the % may be the effect or the level left
[12] = Fraction unbound in C57BL/6 mouse plasma at 300 umol/kg, po; format: ADME, organism-based
Plasma [13] = assay: Free drug concentration in C57BL/6 mouse plasma at 300 umol/kg, po at […]; format: ADME, organism-based; details: in vivo
Mus musculus [14] = assay: Antialzheimer activity in C57BL/6 mouse assessed as reduction in amyloid beta 42 level in brain at 300 umol/kg, po; format: functional, organism-based
[15] = Fraction unbound in C57BL/6 mouse brain at 300 umol/kg, po; format: ADME, organism-based
Mus musculus [16] = species: Mus musculus; assay: Antialzheimer activity in C57BL/6 mouse assessed as unbound brain concentration required for 20% reduction in amyloid beta 40 level in brain at 1.5 by ELISA; format: functional
Mus musculus [17] = assay: Antialzheimer activity in C57BL/6 mouse assessed as reduction in sAPPbeta level in brain at 300 umol/kg, po; format: functional, organism-based
Mus musculus [18] = assay: Antialzheimer activity in C57BL/6 mouse assessed as reduction in amyloid beta 40 level in brain at 80 umol/kg, po at […] by ELISA relative to control; format: functional; set-up: scale not given: the % may be the effect or the level left
[19] = Fraction unbound in C57BL/6 mouse plasma at 80 umol/kg, po; format: ADME, organism-based
Brain [20] = assay: Free drug concentration in C57BL/6 mouse brain at 80 umol/kg, po at […]; format: ADME, organism-based; details: in vivo
Mus musculus [21] = assay: Antialzheimer activity in C57BL/6 mouse assessed as reduction in sAPPbeta level in brain at 80 umol/kg, po; format: functional, organism-based
Mus musculus [22] = assay: Antialzheimer activity in C57BL/6 mouse assessed as reduction in amyloid beta 42 level in brain at 80 umol/kg, po; format: functional, organism-based
in vivo [23] = details: mouse, po
Description: Oral bioavailability in mouse

Plasma [24] = assay: Free drug concentration in C57BL/6 mouse plasma at 80 umol/kg, po at […]; format: ADME, organism-based; details: in vivo
in vivo [25] = details: mouse, po; remark: listed apart in the source
Description: Half life in po dosed mouse

[26] = Ratio of free drug concentration in brain to free drug concentration in plasma in C57BL/6 mouse at 80 umol/kg, po at […]; format: ADME, organism-based
[27] = Fraction unbound in C57BL/6 mouse brain at 80 umol/kg, po; format: ADME, organism-based

T1 sequence (P56817 whole entry): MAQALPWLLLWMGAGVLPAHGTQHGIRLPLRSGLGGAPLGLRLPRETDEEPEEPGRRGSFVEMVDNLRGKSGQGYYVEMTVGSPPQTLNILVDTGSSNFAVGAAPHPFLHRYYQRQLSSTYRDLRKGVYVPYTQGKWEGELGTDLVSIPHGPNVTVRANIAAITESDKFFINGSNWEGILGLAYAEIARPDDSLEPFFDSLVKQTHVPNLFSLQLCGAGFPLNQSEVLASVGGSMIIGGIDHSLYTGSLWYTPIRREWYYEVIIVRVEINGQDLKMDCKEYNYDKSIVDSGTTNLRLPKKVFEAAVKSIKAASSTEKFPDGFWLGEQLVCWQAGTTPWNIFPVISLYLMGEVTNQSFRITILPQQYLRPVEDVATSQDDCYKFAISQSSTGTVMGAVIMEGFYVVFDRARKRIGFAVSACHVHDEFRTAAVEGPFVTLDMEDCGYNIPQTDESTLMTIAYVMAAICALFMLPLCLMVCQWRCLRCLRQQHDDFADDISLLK
Chain of Beta-secretase 1 (Mus musculus, UniProt P56818) (P56818 whole entry): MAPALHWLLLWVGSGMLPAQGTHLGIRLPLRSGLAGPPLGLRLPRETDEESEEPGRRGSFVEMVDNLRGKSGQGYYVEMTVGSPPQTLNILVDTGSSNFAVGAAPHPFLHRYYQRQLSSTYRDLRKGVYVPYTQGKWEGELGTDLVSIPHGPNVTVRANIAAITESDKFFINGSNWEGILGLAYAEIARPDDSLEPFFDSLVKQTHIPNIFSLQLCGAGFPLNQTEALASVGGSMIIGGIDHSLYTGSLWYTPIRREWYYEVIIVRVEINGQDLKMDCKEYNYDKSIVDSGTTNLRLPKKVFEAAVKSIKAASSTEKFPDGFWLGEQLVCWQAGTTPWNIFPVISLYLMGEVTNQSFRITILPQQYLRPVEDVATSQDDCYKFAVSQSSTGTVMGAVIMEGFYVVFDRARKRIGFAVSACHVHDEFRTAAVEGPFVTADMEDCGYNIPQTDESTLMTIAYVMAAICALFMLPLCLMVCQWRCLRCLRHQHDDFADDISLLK
Chain of Voltage-gated inwardly rectifying potassium channel KCNH2 (Q12809 whole entry): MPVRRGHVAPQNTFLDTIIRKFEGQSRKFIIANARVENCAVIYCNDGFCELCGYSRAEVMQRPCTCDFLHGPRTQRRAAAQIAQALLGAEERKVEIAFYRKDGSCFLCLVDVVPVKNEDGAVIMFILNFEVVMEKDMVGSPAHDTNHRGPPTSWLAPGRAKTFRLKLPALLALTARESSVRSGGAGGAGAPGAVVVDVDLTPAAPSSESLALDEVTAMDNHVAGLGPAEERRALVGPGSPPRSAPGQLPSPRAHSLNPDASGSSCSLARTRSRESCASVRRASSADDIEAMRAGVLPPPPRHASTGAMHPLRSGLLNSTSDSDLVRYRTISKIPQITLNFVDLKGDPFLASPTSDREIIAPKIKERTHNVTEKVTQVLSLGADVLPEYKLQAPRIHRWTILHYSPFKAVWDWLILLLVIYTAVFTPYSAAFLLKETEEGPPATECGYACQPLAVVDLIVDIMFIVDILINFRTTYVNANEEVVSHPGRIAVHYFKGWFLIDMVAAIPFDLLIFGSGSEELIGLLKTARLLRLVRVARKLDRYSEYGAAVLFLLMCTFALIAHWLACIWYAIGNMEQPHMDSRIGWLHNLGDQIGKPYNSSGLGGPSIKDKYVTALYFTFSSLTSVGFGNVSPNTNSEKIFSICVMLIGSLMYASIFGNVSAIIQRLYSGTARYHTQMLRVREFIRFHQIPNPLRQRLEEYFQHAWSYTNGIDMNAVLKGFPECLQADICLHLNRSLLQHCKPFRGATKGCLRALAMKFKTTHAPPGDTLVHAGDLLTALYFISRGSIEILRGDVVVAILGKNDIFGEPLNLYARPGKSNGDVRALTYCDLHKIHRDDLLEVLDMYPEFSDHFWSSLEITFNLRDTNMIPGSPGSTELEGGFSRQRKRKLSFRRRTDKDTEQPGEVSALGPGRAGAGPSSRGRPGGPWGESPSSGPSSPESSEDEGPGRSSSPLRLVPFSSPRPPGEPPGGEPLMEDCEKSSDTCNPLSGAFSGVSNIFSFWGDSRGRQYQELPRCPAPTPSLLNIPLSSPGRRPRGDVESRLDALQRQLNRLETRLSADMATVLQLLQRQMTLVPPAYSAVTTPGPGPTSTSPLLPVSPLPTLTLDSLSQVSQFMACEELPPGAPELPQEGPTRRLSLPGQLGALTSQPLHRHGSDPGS

Cc1cc(C2(c3cccc(-c4cncnc4)c3)N=C(N)c3c(F)cccc32)cc(C)n1 (stereo not given)
IC50 (Beta-secretase 1 [1]): 10.7 nM
IC50 (Beta-secretase 1 [2]): 1380 nM

NC1=N[C@@](c2cccc(-c3cncnc3)c2)(c2ccnc(C(F)F)c2)c2cc(F)cc(F)c21
Ki (Beta-secretase 2): 770 nM
IC50 (Beta-secretase 1 [1]): 8.64 nM
IC50 (Beta-secretase 1 [3]): 53 nM
IC50 (Beta-secretase 1 [2]): 36.2 nM

CC#Cc1cncc(-c2cccc([C@@]3(c4cc(C)c(=O)n(CC)c4)N=C(N)c4c(F)cc(F)cc43)c2)c1
IC50 (Beta-secretase 1 [1]): 0.38 nM
IC50 (Beta-secretase 1 [2]): 2.59 nM

Cc1cc(C2(c3cccc(-c4cncnc4)c3)N=C(N)c3c(F)cccc32)cn(C)c1=O (stereo not given)
Ki (Beta-secretase 2): 740 nM
IC50 (Beta-secretase 1 [1]): 11.4 nM
IC50 (Beta-secretase 1 [3]): 30 nM
IC50 (Beta-secretase 1 [2]): 60.8 nM

NC1=NC(c2ccnc(C(F)(F)F)c2)(c2ccc(F)c(-c3cncnc3)c2)c2cccc(F)c21 (racemic)
Papp A→B at 1 h, 10 µM (in vitro [4]): 25 ×10⁻⁶ cm/s
pKa (physchem [5]): 6.4
hepatocyte CLint (in vitro [6]): 6.9 µL/min/1e6 cells
logD (physchem [7]): 3

NC1=N[C@](c2ccncc2)(c2cccc(-c3cncnc3)c2)c2cccc(F)c21
Ki (Beta-secretase 2): 790 nM
IC50 (Beta-secretase 1 [1]): 8.25 nM
IC50 (Beta-secretase 1 [3]): 68 nM
IC50 (Beta-secretase 1 [2]): 124 nM

NC1=NC(c2ccncc2)(c2cccc(-c3cncnc3)c2)c2ccccc21 (stereo not given)
Papp A→B at 1 h, 10 µM (in vitro [4]): 3.4 ×10⁻⁶ cm/s
IC50 [8]: 16000 nM
IC50 (Beta-secretase 1 [1]): 90.3 nM
pKa (physchem [5]): 8.4
efflux ratio at 1 h, 10 µM (in vitro [9]): 12
hepatocyte CLint (in vitro [6]): 11.7 µL/min/1e6 cells
logD (physchem [7]): 0.7

CCn1cc(C2(c3cccc(-c4cncnc4)c3)N=C(N)c3c(F)cccc32)cc(C)c1=O (stereo not given)
IC50 (Beta-secretase 1 [1]): 9.09 nM
IC50 (Beta-secretase 1 [2]): 15.5 nM

CC#Cc1cncc(-c2cccc(C3(c4ccnc(C(F)F)c4)N=C(N)c4c(F)cccc43)c2)c1 (stereo not given)
IC50 (Beta-secretase 1 [1]): 2.97 nM
IC50 (Beta-secretase 1 [2]): 6.49 nM

NC1=NC(c2cccc(-c3cncnc3)c2)(c2ccnc(C(F)F)c2)c2cccc(F)c21 (racemic)
pKa (physchem [5]): 6.8
hepatocyte CLint (in vitro [6]): 27.5 µL/min/1e6 cells
logD (physchem [7]): 2

NC1=NC(c2ccncc2)(c2cccc(-c3cncc(F)c3)c2)c2cccc(F)c21 (stereo not given)
IC50 (Beta-secretase 1 [1]): 25.6 nM
IC50 (Beta-secretase 1 [2]): 137 nM

NC1=NC(c2cccc(-c3cncnc3)c2)(c2ccnc(C(F)(F)F)c2)c2cccc(F)c21 (stereo not given)
IC50 (Beta-secretase 1 [1]): 43.1 nM
IC50 (Beta-secretase 1 [3]): 436 nM

NC1=NC(c2cccc(-c3cncnc3)c2)(c2ccnc(C(F)(F)F)c2)c2ccccc21 (stereo not given)
IC50 (Beta-secretase 1 [1]): 2.1 nM
IC50 (Beta-secretase 1 [2]): 134 nM

NC1=NC(c2ccncc2)(c2cccc(-c3cncnc3)c2)c2cccc(F)c21 (racemic)
IC50 (Beta-secretase 1 [1]): 11.4 nM
IC50 (Beta-secretase 1 [2]): 158 nM

COc1ccc(C2(c3cccc(-c4cncnc4)c3)N=C(N)c3c(F)cccc32)cc1 (stereo not given)
IC50 (Beta-secretase 1 [1]): 12.5 nM
IC50 (Beta-secretase 1 [2]): 135 nM

CCn1cc([C@]2(c3cccc(C#CC4CC4)c3)N=C(N)c3c(F)cccc32)cc(C)c1=O
Ki (Beta-secretase 2): 78 nM
IC50 (Beta-secretase 1 [1]): 0.76 nM
IC50 (Beta-secretase 1 [3]): 3.4 nM
IC50 (Beta-secretase 1 [2]): 6.08 nM

COc1c(C)cc(C2(c3cccc(-c4cncnc4)c3)N=C(N)c3c(F)cccc32)nc1C (stereo not given)
Ki (Beta-secretase 2): 1700 nM
IC50 (Beta-secretase 1 [1]): 2.92 nM
IC50 (Beta-secretase 1 [3]): 40 nM

N#Cc1cncc(-c2cccc(C3(c4ccnc(C(F)(F)F)c4)N=C(N)c4c(F)cccc43)c2)c1 (stereo not given)
Papp A→B at 1 h, 10 µM (in vitro [4]): 16 ×10⁻⁶ cm/s
IC50 [8]: 1700 nM
IC50 (Beta-secretase 1 [1]): 29.9 nM
efflux ratio at 1 h, 10 µM (in vitro [9]): 0.8
hepatocyte CLint (in vitro [6]): 5.2 µL/min/1e6 cells
logD (physchem [7]): 3.7
IC50 (Beta-secretase 1 [2]): 253 nM

CCn1cc([C@]2(c3cccc(NC(=O)c4ccc(Cl)cn4)c3)N=C(N)c3c(F)cccc32)cc(C)c1=O
IC50 (Beta-secretase 1 [1]): 0.15 nM
IC50 (Beta-secretase 1 [2]): 2.49 nM

NC1=N[C@](c2ccnc(C(F)(F)F)c2)(c2ccc(F)c(-c3cncnc3)c2)c2cccc(F)c21
Drug uptake(free) (Brain [10]): 406 nM
Papp A→B at 1 h, 10 µM (in vitro [4]): 30 ×10⁻⁶ cm/s
Activity (Mus musculus [11]): 50%
IC50 (Beta-secretase 1 [3]): 204 nM
fraction unbound [12]: 0.044
Cp(f) (Plasma [13]): 795 nM
hepatocyte CLint (in vitro [6]): 10 µL/min/1e6 cells
logD (physchem [7]): 3
Activity (Mus musculus [14]): Active
fraction unbound [15]: 0.025
Activity (Mus musculus [16]): 114 nM
Activity (Mus musculus [17]): Active

CCn1cc(C2(c3cccc(-c4cncc(C#N)c4)c3)N=C(N)c3c(F)cccc32)cc(C)c1=O (stereo not given)
IC50 (Beta-secretase 1 [1]): 1.84 nM
IC50 (Beta-secretase 1 [2]): 8.26 nM

COc1c(C)cc(C2(c3cccc(-c4cncnc4)c3)N=C(N)c3c(F)cccc32)cc1C#N (stereo not given)
Papp A→B at 1 h, 10 µM (in vitro [4]): 23 ×10⁻⁶ cm/s
IC50 (Beta-secretase 1 [1]): 3.4 nM
hepatocyte CLint (in vitro [6]): 30.9 µL/min/1e6 cells
logD (physchem [7]): 3.1

CCn1cc(C2(c3cccc(-c4cncc(F)c4)c3)N=C(N)c3c(F)cccc32)cc(C)c1=O (stereo not given)
IC50 (Beta-secretase 1 [1]): 3.98 nM

NC1=N[C@@](c2cccc(-c3cncnc3)c2)(c2ccnc(C(F)F)c2)c2cccc(F)c21 [AZD-3839]
Activity (Mus musculus [18]): 31%
fraction unbound [19]: 0.027
Drug uptake(free) (Brain [20]): 119 nM
Activity (Mus musculus [21]): Active
Activity (Mus musculus [22]): Active
Ki (Beta-secretase 2): 370 nM
bioavailability (in vivo [23]): 73%
pKa (physchem [5]): 7.1
IC50 (Beta-secretase 1 [3]): 51 nM
hepatocyte CLint (in vitro [6]): 20.9 µL/min/1e6 cells
logD (physchem [7]): 2
Cp(f) (Plasma [24]): 170 nM
half-life (in vivo [25]): 1.5 h
K(p,uu,brain) [26]: 0.7
fraction unbound [27]: 0.079

COc1cc(C2(c3cccc(-c4cncnc4)c3)N=C(N)c3c(F)cccc32)ccn1 (stereo not given)
IC50 (Beta-secretase 1 [1]): 21.5 nM
